Test results reported in patent US20250034139A1, “AMINE COMPOUNDS HAVING ANTI-INFLAMMATORY, ANTIFUNGAL, ANTIPARASITIC, AND ANTICANCER ACTIVITY” (PHARMA CINQ, LLC, priority 2013, published 2025).

Key:
[1] = tested on: EAE induced by PLP139-151; assay: Example G: Experimental Autoimmune Encephalitis (EAE) mouse model of multiple sclerosis; format: in vivo
[2] = tested on: Vit-D3 activated THP-1 cells; assay: Example B: Acridine Orange (A.O.) uptake, lysosomal acidification and integrity; format: cell-based, Human; details: 5 hours
Protocol: In this experiment, cell viability was monitored and uptake and accumulation of acridine orange, a lysosomotropic fluorescent dye, was used to assess lysosomal acidification and integrity. JC-1 dye was used to measure effects of test compounds on mitochondrial membrane potential (MMP); reduction of MMP is a feature of apoptotic cell death. • 1. […] The tubes were washed twice in DPBS, resuspended in 500 μl DPBS and acquired on the FACSCalibur.

[3] = tested on: Vit-D3 activated THP-1 cells; assay: Example B: viable cell count, AC vs chloroquine, +/- LPS; format: cell-based, Human; details: LPS-stimulated and basal THP-1 cells, 5 hours
Protocol: • 1. Vit-D3 activated THP-1 cells (0.5×10^6 cells in 2 ml) were transferred to the wells of a 24-well dish • 2. Compound AC was added at a concentration of 0.5 μM, 1.0 μM or 5.0 μM • 3. […] LPS from E. coli 0111:B4 (1 ng/ml final concentration) was added to some wells • 5. After 5 hours viable cell count, Acridine Orange (A.O.) uptake and JC-1 mitochondrial loading were determined by fluorescence-activated cell sorting (FACS)
THP-1 cells (p39) treated with 0.1 μM vit-D3 (100 μM) in DMSO] for 3 days were counted, spun down, resuspended in serum-free RPMI (Lonza 12-115F) and transferred to the wells of two 24-well dishes (0.5×10^6 cells in 2 ml). […] Crude-LPS from E. coli 0111:B4 was added to some wells (1 ng/ml final conc) and the plates placed in a 37 C incubator. 1 μl of Baf A1 (50 nM final conc) was added to one well (no LPS) at T=4 hours to serve as a compensation control for Acridine Orange loading. After 5 hours, 500 μl aliquots of cells were transferred to FACS tubes and viable cell counts, A.O. loading and JC-1 accumulation determined by FACS.
The tubes were washed twice in DPBS, resuspended in 500 μl DPBS and acquired on the FACSCalibur.

[4] = tested on: TPA induced chronic skin inflammation; assay: Example E: TPA induced chronic skin inflammation mouse model, ear thickness; format: in vivo
From the text: Objective: To evaluate the anti-inflammatory properties of compounds of the invention in a 12-O-tetradecanoylphorbol-13-acetate (TPA) induced chronic skin inflammation mouse model.
Topically applied phorbol esters such as TPA induce skin inflammation involving edema, macrophage and T cell infiltration and epidermal hyperplasia (Alford et al., 1992), and this system has been used as an animal model for dermatitis, mimicking aspects of human inflammatory skin disorders. TPA is also known as a tumor promoter, so that agents which inhibit hyperproliferative or angiogenic actions of TPA may inhibit tumor promotion.
Drug formulations: Compound AC was dissolved in isopropyl myristate:propylene glycol (1:1)+0.9% DMSO at the indicated concentrations. TPA was dissolved in acetone:water (99:1). Dexamethasone (0.06%) was dissolved in normal saline.
Mice: HSD-ICR(CD-1R) female mice at 8-10 weeks of age were used in this experiment.
Experimental Design: Mice were placed into six groups of 10 mice each. 20 μL of 0.01% TPA was administered to each ear on days 0, 2, 4, 7, 9, 11, 13, 15, 18, 20, and 22. 20 μL of AC at various concentrations or 20 μL of dexamethasone solution was applied to the ears daily beginning on day 7, after inflammatory changes in ear thickness were established. Ear thickness was measured with calipers every three days.

SMILES: CCCCCCOc1cccc(OCCCNc2ccnc3ccccc23)c1 [AZ, N-{3-[3-(Hexyloxy)phenoxy]propyl}quinolin-4-amine]
- EAE Score on Day 46 ([1]; 60 μmol/kg by oral gavage from Day 14, score 0-5): 2.50 ± 0.29
- EAE Score on Day 14 (Before Treatment) ([1]; baseline, score 0-5): 0.83 ± 0.41

SMILES: CCCCCCOc1cccc(CNc2ccnc3ccccc23)c1 [Compound AC, N-[3-(Hexyloxy)benzyl]quinolin-4-amine]
- A.O. FL-3 fluorescence (MFI) percent change from DMSO no LPS, Mean ± SE ([2]; 0.1 μM AC, 1 ng/ml LPS): −54.72 ± 2.74%
- A.O. FL-3 fluorescence (MFI) percent change from DMSO no LPS, Mean ± SE ([2]; 0.1 μM AC, No LPS): −27.64 ± 9.68%
- A.O. FL-3 fluorescence (MFI) percent change from DMSO no LPS, Mean ± SE ([2]; 0.5 μM AC, 1 ng/ml LPS): −68.24 ± 2.39%
- A.O. FL-3 fluorescence (MFI) percent change from DMSO no LPS, Mean ± SE ([2]; 0.5 μM AC, No LPS): −54.59 ± 4.05%
- A.O. FL-3 fluorescence (MFI) percent change from DMSO no LPS, Mean ± SE ([2]; 1.0 μM AC, 1 ng/ml LPS): −81.11 ± 2.65%
- A.O. FL-3 fluorescence (MFI) percent change from DMSO no LPS, Mean ± SE ([2]; 1.0 μM AC, No LPS): −69.52 ± 2.05%
- potency of AC relative to chloroquine for inactivating macrophages (THP-1 cells) [3]: approximately 100 fold
- Ear thickness (mm) ([4]; day 22, 0.0125 mg/ear daily topical from day 7, TPA-treated mice): 0.362 ± 0.0394 mm
- Ear thickness (mm) ([4]; day 22, 0.025 mg/ear daily topical from day 7, TPA-treated mice): 0.390 ± 0.0319 mm
- Ear thickness (mm) ([4]; day 22, 0.05 mg/ear daily topical from day 7, TPA-treated mice): 0.391 ± 0.0334 mm
- Ear thickness (mm) ([4]; day 22, 0.075 mg/ear daily topical from day 7, TPA-treated mice): 0.395 ± 0.0438 mm
- Histology of TPA-treated ears, in words ([4]; topical AC): both TPA-induced edema and epidermal hyperplasia were reduced by AC, as was angiogenesis
